This passage reports IC50 results from patent US9763957B2, “Autotaxin inhibitors” (Novartis AG, priority 2013, dated 2017).

Each structure is given as a SMILES string.

This experiment concerns the target Recombinant human ATX (Homo sapiens (Human), UniProt Q13822). The experiment can be described thus: ATX inhibition assay (choline release, Amplex Red fluorescence). Format: biochemical. The following applies: ATX 10 nM, LPC 18:1 10 μM, 37° C., 20 min pre-incubation; mean of n≧2. In short, it runs like this:
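Activity was taken from the slope of resorufin fluorescence (530/590 nm, read every 2 min for 40 min at 37 °C) produced by choline liberated from 10 μM oleoyl LPC.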
As to `Cc1nnn(Cc2cc(Cl)ccc2/C=C/C(=O)N2CCCC(O)C2)n1` (centres unmarked) [Example 49.7, (E)-3-(4-Chloro-2-((5-methyl-2H-tetrazol-2-yl)methyl)phenyl)-1-(3-hydroxypiperidin-1-yl)prop-2-en-1-one], the IC50 – broadly, the concentration needed to halve the response being measured – came to 151 nM.

For `Cc1nnn(Cc2cc(Cl)ccc2/C=C/C(=O)N2CCC(CCCc3nnc(C)o3)CC2)n1` [Example 26, (E)-3-(4-Chloro-2-((5-methyl-2H-tetrazol-2-yl)methyl)phenyl)-1-(4-(3-(5-methyl-1,3,4-oxadiazol-2-yl)propyl)piperidin-1-yl)prop-2-en-1-one], the IC50 turned out to be 31 nM.

Turning to `Cc1nnn(Cc2cc(C(F)(F)F)ccc2/C=C/C(=O)N2CCC(c3noc(C)n3)CC2)n1` [Example 4, (E)-1-(4-(5-Methyl-1,2,4-oxadiazol-3-yl)piperidin-1-yl)-3-(2-((5-methyl-2H-tetrazol-2-yl)methyl)-4-(trifluoromethyl)phenyl)prop-2-en-1-one], the IC50 was determined as 5.8 nM.

As for `C[C@@H]1CN(Cc2ccc(F)cc2)CCN1C(=O)/C=C/c1ccc(Cl)cc1Cc1nnn(C)n1` [Example 143, (R,E)-3-(4-Chloro-2-((2-methyl-2H-tetrazol-5-yl)methyl)phenyl)-1-(4-(4-fluorobenzyl)-2-methylpiperazin-1-yl)prop-2-en-1-one], the IC50 was 31 nM.

For `CCc1nnc(C2CCN(C(=O)/C=C/c3ccc(C(F)(F)F)cc3Cn3nnc(C)n3)CC2)o1` [Example 92, (E)-1-(4-(5-Ethyl-1,3,4-oxadiazol-2-yl)piperidin-1-yl)-3-(2-((5-methyl-2H-tetrazol-2-yl)methyl)-4-(trifluoromethyl)phenyl)prop-2-en-1-one], the IC50 was found to be 3.6 nM.

For the compound `Cc1nnn(Cc2cc(Cl)ccc2/C=C/C(=O)N2CCC(n3nccn3)CC2)n1` [Example 22, (E)-1-(4-(2H-1,2,3-Triazol-2-yl)piperidin-1-yl)-3-(4-chloro-2-((5-methyl-2H-tetrazol-2-yl)methyl)phenyl)prop-2-en-1-one], the IC50 was 26 nM.

In the case of `COC(=O)C1CCN(C(=O)/C=C/c2ccc(Cl)cc2Cn2nnc(C)n2)CC1` [Example 128, (E)-Methyl 1-(3-(4-chloro-2-((5-methyl-2H-tetrazol-2-yl)methyl)phenyl)acryloyl)piperidine-4-carboxylate], the IC50 is 28 nM.

Consider `Cc1nnn(Cc2cc(Cl)ccc2/C=C/C(=O)N2CCC(n3ncnc3C)CC2)n1` [Example 11, (E)-3-(4-Chloro-2-((5-methyl-2H-tetrazol-2-yl)methyl)phenyl)-1-(4-(5-methyl-1H-1,2,4-triazol-1-yl)piperidin-1-yl)prop-2-en-1-one], for which the IC50 was 73 nM.

`Cc1cnn(C2CCN(C(=O)/C=C/c3ccc(Cl)cc3Cn3nnc(C)n3)CC2)c1` [Example 28, (E)-3-(4-Chloro-2-((5-methyl-2H-tetrazol-2-yl)methyl)phenyl)-1-(4-(4-methyl-1H-pyrazol-1-yl)piperidin-1-yl)prop-2-en-1-one]: the IC50 is 6.3 nM.

For the compound `Cc1nnn(Cc2cc(F)c(F)cc2/C=C/C(=O)N2CCC(Cc3nnc(C)o3)CC2)n1` [Example 42, (E)-3-(4,5-Difluoro-2-((5-methyl-2H-tetrazol-2-yl)methyl)phenyl)-1-(4-((5-methyl-1,3,4-oxadiazol-2-yl)methyl)piperidin-1-yl)prop-2-en-1-one], the IC50 worked out at 436 nM.

For `CCCNC(=O)COC1CCN(C(=O)/C=C/c2ccc(Cl)cc2Cn2nnc(C)n2)CC1` [Example 49.30, (E)-2-((1-(3-(4-Chloro-2-((5-methyl-2H-tetrazol-2-yl)methyl)phenyl)acryloyl)piperidin-4-yl)oxy)-N-propylacetamide], the IC50 turned out to be 52 nM.

As for `CCOc1c(NCCC2CN(C(=O)/C=C/c3ccc(Cl)cc3Cn3nnc(C)n3)CCO2)c(=O)c1=O` (centres unmarked) [Example 150, (E)-3-((2-(4-(3-(4-Chloro-2-((5-methyl-2H-tetrazol-2-yl)methyl)phenyl)acryloyl)morpholin-2-yl)ethyl)amino)-4-ethoxycyclobut-3-ene-1,2-dione], the IC50 turned out to be 6.9 nM.

As for `Cc1nnn(Cc2cc(C(F)(F)F)ccc2/C=C/C(=O)N2CCN(C(=O)OC(C)(C)C)CC2)n1` [Example 68, (E)-tert-Butyl-4-(3-(2-((5-methyl-2H-tetrazol-2-yl)methyl)-4-(trifluoromethyl)phenyl)acryloyl)piperazine-1-carboxylate], the IC50 came out at 4.5 nM.

Regarding `Cc1nnn(Cc2cc(Cl)ccc2/C=C/C(=O)N2CCN(Cc3cnn(C)c3)CC2)n1` [Example 140.9, (E)-3-(4-Chloro-2-((5-methyl-2H-tetrazol-2-yl)methyl)phenyl)-1-(4-((1-methyl-1H-pyrazol-4-yl)methyl)piperazin-1-yl)prop-2-en-1-one], the IC50 worked out at 34 nM.

As for `Cc1nnn(Cc2cc(Cl)ccc2/C=C/C(=O)N2CCC(c3ncc(C)o3)CC2)n1` [Example 24, (E)-3-(4-Chloro-2-((5-methyl-2H-tetrazol-2-yl)methyl)phenyl)-1-(4-(5-methyloxazol-2-yl)piperidin-1-yl)prop-2-en-1-one], the IC50 worked out at 4 nM.

On to `Cc1nnn(Cc2cc(Cl)ccc2/C=C/C(=O)N2CCC(c3nnc(CC4CCOCC4)o3)CC2)n1` [Example 110, (E)-3-(4-Chloro-2-((5-methyl-2H-tetrazol-2-yl)methyl)phenyl)-1-(4-(5-((tetrahydro-2H-pyran-4-yl)methyl)-1,3,4-oxadiazol-2-yl)piperidin-1-yl)prop-2-en-1-one], for which the IC50 was 5.2 nM.

As to `Cc1nnn(Cc2cc(Cl)ccc2/C=C/C(=O)N2CCN(Cc3coc(C)n3)CC2)n1` [Example 140.3, (E)-3-(4-Chloro-2-((5-methyl-2H-tetrazol-2-yl)methyl)phenyl)-1-(4-((2-methyloxazol-4-yl)methyl)piperazin-1-yl)prop-2-en-1-one], the IC50 was 30 nM.

`Cc1nnn(Cc2cc(Cl)ccc2/C=C/C(=O)N2CCCN(c3ncccn3)CC2)n1` [Example 49.25, (E)-3-(4-Chloro-2-((5-methyl-2H-tetrazol-2-yl)methyl)phenyl)-1-(4-(pyrimidin-2-yl)-1,4-diazepan-1-yl)prop-2-en-1-one]: the IC50 amounted to 10 nM.

For the compound `COc1ccc(CN2CCN(C(=O)/C=C/c3ccc(Cl)cc3Cn3nnc(C)n3)CC2)nc1` [Example 140.1, (E)-3-(4-Chloro-2-((5-methyl-2H-tetrazol-2-yl)methyl)phenyl)-1-(4-((5-methoxypyridin-2-yl)methyl)piperazin-1-yl)prop-2-en-1-one], the IC50 came to 5.9 nM.

`Cc1nnn(Cc2cc(C(F)(F)F)ccc2/C=C/C(=O)N2CCN(Cc3coc(C)n3)C[C@H]2C)n1` [Example 69, (R,E)-3-(2-((5-Methyl-2H-tetrazol-2-yl)methyl)-4-(trifluoromethyl)phenyl)-1-(2-methyl-4-((2-methyloxazol-4-yl)methyl)piperazin-1-yl)prop-2-en-1-one]: the IC50 was 2 nM.

As for `Cc1nnn(Cc2cc(C(F)(F)F)ccc2/C=C/C(=O)N2CCC(N3CCCC3=O)CC2)n1` [Example 126, (E)-1-(1-(3-(2-((5-Methyl-2H-tetrazol-2-yl)methyl)-4-(trifluoromethyl)phenyl)acryloyl)piperidin-4-yl)pyrrolidin-2-one], the IC50 stood at 22 nM.

For `Cc1nnn(Cc2cc(Cl)ccc2/C=C/C(=O)N2CCC(O)(Cn3cc(C(=O)N4CCCCC4)cn3)CC2)n1` [Example 16, (E)-3-(4-Chloro-2-((5-methyl-2H-tetrazol-2-yl)methyl)phenyl)-1-(4-hydroxy-4-((4-(piperidine-1-carbonyl)-1H-pyrazol-1-yl)methyl)piperidin-1-yl)prop-2-en-1-one], the IC50 was 11 nM.

As for `Cc1nnn(Cc2cc(C(F)(F)F)ccc2/C=C/C(=O)N2CCC(NC(=O)CCCc3c[nH]nn3)CC2)n1` [Example 152, (E)-N-(1-(3-(2-((5-Methyl-2H-tetrazol-2-yl)methyl)-4-(trifluoromethyl)phenyl)acryloyl)piperidin-4-yl)-4-(1H-1,2,3-triazol-4-yl)butanamide], the IC50 came out at 3.9 nM.

Regarding `Cc1nnn(Cc2cc(Cl)ccc2/C=C/C(=O)N2CC[C@H](NC(=O)C(F)(F)F)C2)n1` [Example 49.18, (S,E)-N-(1-(3-(4-Chloro-2-((5-methyl-2H-tetrazol-2-yl)methyl)phenyl)acryloyl)pyrrolidin-3-yl)-2,2,2-trifluoroacetamide], the half-inhibitory concentration (IC50) turned out to be 130 nM.

As to `C/C(=C\C(=O)N1CCC(c2nnc(C)o2)CC1)c1ccc(Cl)cc1Cn1nnc(C)n1` [Example 39, (E)-3-(4-Chloro-2-((5-methyl-2H-tetrazol-2-yl)methyl)phenyl)-1-(4-(5-methyl-1,3,4-oxadiazol-2-yl)piperidin-1-yl)but-2-en-1-one], the IC50 turned out to be 75 nM.

In the case of `Cc1cnn(CCC2CCN(C(=O)/C=C/c3ccc(Cl)cc3Cn3nnc(C)n3)CC2)c1` [Example 33, (E)-3-(4-Chloro-2-((5-methyl-2H-tetrazol-2-yl)methyl)phenyl)-1-(4-(2-(4-methyl-1H-pyrazol-1-yl)ethyl)piperidin-1-yl)prop-2-en-1-one], the IC50 was 53 nM.

For `Cc1nnn(Cc2cc(Cl)ccc2/C=C/C(=O)N2CCC(CC(=O)N3CCOCC3)CC2)n1` [Example 129, (E)-3-(4-Chloro-2-((5-methyl-2H-tetrazol-2-yl)methyl)phenyl)-1-(4-(2-morpholino-2-oxoethyl)piperidin-1-yl)prop-2-en-1-one], the IC50 was 49 nM.

As to `Cc1nnn(Cc2cc(OC(F)(F)F)ccc2/C=C/C(=O)N2CCC(c3nnc(C)o3)CC2)n1` [Example 54, (E)-1-(4-(5-Methyl-1,3,4-oxadiazol-2-yl)piperidin-1-yl)-3-(2-((5-methyl-2H-tetrazol-2-yl)methyl)-4-(trifluoromethoxy)phenyl)prop-2-en-1-one], the IC50 amounted to 8.9 nM.

As to `Cc1nnn(Cc2c(F)cccc2/C=C/C(=O)N2CCC(Cc3nnc(C)o3)CC2)n1` [Example 78, (E)-3-(3-Fluoro-2-((5-methyl-2H-tetrazol-2-yl)methyl)phenyl)-1-(4-((5-methyl-1,3,4-oxadiazol-2-yl)methyl)piperidin-1-yl)prop-2-en-1-one], the IC50 was 1460 nM.
